This is an account of results in ChEMBL document CHEMBL3758163, “Extended structure-activity study of thienopyrimidine-based EGFR inhibitors with evaluation of drug-like properties” (Eur J Med Chem, 2016).

For assay [1], the target named is Hepatocyte growth factor receptor (Homo sapiens) (UniProt P08581). The assay can be described thus: Inhibition of MET (unknown origin) at 500 nM.
In assay [2] the target is Protein kinase C beta type (Homo sapiens) (UniProt P05771). The experiment in a line: Inhibition of PRKCB1 (unknown origin) at 500 nM.
In assay [3] the target is Mitogen-activated protein kinase 8 (Homo sapiens) (UniProt P45983). The experiment in a line: Inhibition of MAPK8 (unknown origin) at 500 nM.
The target in assay [4] is Mitogen-activated protein kinase 1 (Homo sapiens) (UniProt P28482). The experiment in a line: Inhibition of MAPK1 (unknown origin) at 500 nM.
Mitogen-activated protein kinase 1 (Homo sapiens), sequence (P28482 whole entry): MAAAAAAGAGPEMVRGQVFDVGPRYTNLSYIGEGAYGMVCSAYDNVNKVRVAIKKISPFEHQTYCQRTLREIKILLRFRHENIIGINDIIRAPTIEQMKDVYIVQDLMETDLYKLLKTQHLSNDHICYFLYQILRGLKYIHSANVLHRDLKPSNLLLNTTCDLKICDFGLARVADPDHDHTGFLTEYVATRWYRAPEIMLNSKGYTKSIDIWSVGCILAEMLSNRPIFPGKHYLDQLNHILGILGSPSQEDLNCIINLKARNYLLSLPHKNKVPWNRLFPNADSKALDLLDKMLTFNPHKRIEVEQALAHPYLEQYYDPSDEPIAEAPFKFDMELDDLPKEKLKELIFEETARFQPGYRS
Assay [5] has as its target Platelet-derived growth factor receptor beta (Homo sapiens) (UniProt P09619). The assay can be described thus: Inhibition of PDGFRB (unknown origin) at 500 nM.
Assay [6] deals with T1, Ephrin type-A receptor 1 (Homo sapiens) (UniProt P21709).
T1 sequence (whole entry): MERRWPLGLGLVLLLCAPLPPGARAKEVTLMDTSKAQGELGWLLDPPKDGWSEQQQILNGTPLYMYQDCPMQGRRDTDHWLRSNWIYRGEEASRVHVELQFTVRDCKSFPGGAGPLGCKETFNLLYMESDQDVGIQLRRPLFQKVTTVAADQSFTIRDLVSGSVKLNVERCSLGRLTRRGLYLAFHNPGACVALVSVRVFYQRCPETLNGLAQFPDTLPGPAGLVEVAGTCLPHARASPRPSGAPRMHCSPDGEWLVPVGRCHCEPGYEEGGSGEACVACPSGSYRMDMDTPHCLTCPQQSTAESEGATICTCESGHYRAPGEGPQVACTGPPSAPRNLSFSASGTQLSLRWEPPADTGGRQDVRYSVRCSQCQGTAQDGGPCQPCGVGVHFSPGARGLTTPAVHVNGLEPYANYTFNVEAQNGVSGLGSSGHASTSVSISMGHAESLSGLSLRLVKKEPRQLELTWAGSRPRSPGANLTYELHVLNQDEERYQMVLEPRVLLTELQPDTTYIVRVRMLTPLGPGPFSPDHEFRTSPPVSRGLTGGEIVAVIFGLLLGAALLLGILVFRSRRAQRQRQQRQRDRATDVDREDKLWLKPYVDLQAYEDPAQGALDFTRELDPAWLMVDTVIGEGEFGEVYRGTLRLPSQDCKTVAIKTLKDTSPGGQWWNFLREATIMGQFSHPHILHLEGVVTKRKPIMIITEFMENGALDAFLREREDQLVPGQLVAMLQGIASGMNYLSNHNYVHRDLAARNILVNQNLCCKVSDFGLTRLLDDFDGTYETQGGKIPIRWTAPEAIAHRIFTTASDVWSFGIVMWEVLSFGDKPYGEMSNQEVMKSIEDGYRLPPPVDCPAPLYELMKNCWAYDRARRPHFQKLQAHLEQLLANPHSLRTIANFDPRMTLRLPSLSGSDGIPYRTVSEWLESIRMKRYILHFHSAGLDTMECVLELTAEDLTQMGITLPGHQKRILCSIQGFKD
The assay can be described thus: Inhibition of EPHA1 (unknown origin) at 500 nM.

The target of assay [7] is Tyrosine-protein kinase ABL1 (Homo sapiens) (UniProt P00519). The assay can be described thus: Inhibition of ABL1 (unknown origin) at 500 nM.
Assay [8] concerns the target Receptor tyrosine-protein kinase erbB-4 (Homo sapiens) (UniProt Q15303). The assay can be described thus: Inhibition of ERBB4 (unknown origin) at 500 nM.
The target in assay [9] is Serine/threonine-protein kinase pim-2 (Homo sapiens) (UniProt Q9P1W9). The experiment in a line: Inhibition of PIM2 (unknown origin) at 500 nM.
Assay [10] addresses Vascular endothelial growth factor receptor 1 (Homo sapiens) (UniProt P17948). The experiment in a line: Inhibition of FLT1 (unknown origin) at 500 nM.
Assay [11] deals with Glycogen synthase kinase-3 beta (Homo sapiens) (UniProt P49841). The experiment in a line: Inhibition of GSK3B (unknown origin) at 500 nM.
Glycogen synthase kinase-3 beta (Homo sapiens), sequence (P49841 whole entry, looked up): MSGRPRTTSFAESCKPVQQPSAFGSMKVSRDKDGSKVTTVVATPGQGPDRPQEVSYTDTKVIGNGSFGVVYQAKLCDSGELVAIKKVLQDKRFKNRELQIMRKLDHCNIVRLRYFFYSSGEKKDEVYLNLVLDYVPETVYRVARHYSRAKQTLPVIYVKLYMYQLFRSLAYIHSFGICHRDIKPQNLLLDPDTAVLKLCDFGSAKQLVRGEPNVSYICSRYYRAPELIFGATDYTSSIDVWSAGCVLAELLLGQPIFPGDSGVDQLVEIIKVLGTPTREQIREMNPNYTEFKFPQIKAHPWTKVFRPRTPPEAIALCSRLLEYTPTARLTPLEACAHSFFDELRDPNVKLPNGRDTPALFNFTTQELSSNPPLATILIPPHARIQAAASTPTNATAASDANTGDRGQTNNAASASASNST
The target of assay [12] is Focal adhesion kinase 1 (Homo sapiens) (UniProt Q05397). The assay can be described thus: Inhibition of PTK2 (unknown origin) at 500 nM.
Focal adhesion kinase 1 (Homo sapiens), sequence (Q05397 2-1052 limits assumed): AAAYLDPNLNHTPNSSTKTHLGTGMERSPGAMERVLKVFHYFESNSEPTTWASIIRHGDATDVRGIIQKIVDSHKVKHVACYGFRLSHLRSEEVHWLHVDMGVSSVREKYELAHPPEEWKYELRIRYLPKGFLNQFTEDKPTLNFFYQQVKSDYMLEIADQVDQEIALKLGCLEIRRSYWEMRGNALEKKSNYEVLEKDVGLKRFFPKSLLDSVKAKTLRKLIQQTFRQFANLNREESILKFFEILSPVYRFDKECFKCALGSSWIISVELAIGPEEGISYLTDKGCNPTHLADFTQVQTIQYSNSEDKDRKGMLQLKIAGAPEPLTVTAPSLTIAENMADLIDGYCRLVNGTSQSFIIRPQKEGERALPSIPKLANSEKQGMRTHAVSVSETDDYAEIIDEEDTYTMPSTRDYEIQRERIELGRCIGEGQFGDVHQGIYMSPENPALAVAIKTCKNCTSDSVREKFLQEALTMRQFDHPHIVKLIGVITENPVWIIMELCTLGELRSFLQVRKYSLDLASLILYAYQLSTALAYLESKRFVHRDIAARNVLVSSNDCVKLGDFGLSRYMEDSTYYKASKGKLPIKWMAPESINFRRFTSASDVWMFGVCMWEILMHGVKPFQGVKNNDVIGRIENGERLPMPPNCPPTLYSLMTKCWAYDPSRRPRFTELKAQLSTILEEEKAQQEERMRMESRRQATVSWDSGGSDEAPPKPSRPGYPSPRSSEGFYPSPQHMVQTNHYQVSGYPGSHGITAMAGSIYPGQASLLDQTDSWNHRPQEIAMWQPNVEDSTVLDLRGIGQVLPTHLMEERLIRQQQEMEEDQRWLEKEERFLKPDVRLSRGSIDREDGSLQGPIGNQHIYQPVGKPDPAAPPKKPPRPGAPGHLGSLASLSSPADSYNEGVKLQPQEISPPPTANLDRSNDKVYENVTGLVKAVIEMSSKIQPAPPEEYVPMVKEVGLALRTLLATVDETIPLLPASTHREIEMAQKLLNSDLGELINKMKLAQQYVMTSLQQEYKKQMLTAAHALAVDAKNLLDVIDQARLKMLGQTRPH
In assay [13] the target is Tyrosine-protein kinase Yes (Homo sapiens) (UniProt P07947). The experiment in a line: Inhibition of YES1 (unknown origin) at 500 nM.
Assay [14] concerns the target Macrophage colony-stimulating factor 1 receptor (Homo sapiens) (UniProt P07333). The experiment in a line: Inhibition of CSF1R (unknown origin) at 500 nM.
Assay [15] concerns the target Tyrosine-protein kinase SYK (Homo sapiens) (UniProt P43405). The assay can be described thus: Inhibition of SYK (unknown origin) at 500 nM.
For assay [16], the target named is Platelet-derived growth factor receptor alpha (Homo sapiens) (UniProt P16234). The experiment in a line: Inhibition of PDGFRA (unknown origin) at 500 nM.
Platelet-derived growth factor receptor alpha (Homo sapiens), sequence (P16234 whole entry): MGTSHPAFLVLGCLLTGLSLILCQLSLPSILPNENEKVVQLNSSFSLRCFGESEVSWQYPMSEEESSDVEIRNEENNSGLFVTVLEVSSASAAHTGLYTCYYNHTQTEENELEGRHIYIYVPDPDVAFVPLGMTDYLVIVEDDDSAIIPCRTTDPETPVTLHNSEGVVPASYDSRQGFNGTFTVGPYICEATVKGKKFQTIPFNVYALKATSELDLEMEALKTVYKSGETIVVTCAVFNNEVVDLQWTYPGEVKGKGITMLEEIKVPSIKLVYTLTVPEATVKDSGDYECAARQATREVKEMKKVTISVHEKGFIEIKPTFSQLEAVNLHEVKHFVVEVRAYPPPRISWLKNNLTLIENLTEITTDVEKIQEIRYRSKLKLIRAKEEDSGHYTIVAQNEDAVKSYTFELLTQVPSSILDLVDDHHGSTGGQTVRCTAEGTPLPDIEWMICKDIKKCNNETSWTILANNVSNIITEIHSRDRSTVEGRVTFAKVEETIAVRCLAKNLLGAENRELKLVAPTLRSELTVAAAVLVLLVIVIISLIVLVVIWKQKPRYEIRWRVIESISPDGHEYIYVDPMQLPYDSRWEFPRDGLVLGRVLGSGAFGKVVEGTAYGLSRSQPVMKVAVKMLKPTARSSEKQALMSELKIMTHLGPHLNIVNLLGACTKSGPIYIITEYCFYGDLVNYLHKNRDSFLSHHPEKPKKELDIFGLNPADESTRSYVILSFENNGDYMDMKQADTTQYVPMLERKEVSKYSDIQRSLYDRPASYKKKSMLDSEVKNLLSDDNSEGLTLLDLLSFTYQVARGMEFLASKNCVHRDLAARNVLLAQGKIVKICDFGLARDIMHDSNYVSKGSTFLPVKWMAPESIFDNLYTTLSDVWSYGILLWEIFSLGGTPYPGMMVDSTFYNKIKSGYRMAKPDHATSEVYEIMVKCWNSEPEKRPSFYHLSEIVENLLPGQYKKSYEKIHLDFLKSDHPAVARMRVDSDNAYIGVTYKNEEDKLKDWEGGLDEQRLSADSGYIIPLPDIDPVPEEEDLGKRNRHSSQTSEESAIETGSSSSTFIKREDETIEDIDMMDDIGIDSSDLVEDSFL
Assay [17] concerns the target Aurora kinase B (Homo sapiens) (UniProt Q96GD4). The experiment in a line: Inhibition of AURKB (unknown origin) at 500 nM.
Assay [18] concerns the target Tyrosine-protein kinase Fgr (Homo sapiens) (UniProt P09769). The assay can be described thus: Inhibition of FGR (unknown origin) at 500 nM.
Assay [19] deals with Tyrosine-protein kinase CSK (Homo sapiens) (UniProt P41240). The assay can be described thus: Inhibition of CSK (unknown origin) at 500 nM.
Assay [20] deals with Proto-oncogene tyrosine-protein kinase receptor Ret (Homo sapiens) (UniProt P07949). The assay can be described thus: Inhibition of RET (unknown origin) at 500 nM.
Assay [21] concerns the target T2, Inhibitor of nuclear factor kappa-B kinase subunit beta (Homo sapiens) (UniProt O14920).
T2 sequence (whole entry): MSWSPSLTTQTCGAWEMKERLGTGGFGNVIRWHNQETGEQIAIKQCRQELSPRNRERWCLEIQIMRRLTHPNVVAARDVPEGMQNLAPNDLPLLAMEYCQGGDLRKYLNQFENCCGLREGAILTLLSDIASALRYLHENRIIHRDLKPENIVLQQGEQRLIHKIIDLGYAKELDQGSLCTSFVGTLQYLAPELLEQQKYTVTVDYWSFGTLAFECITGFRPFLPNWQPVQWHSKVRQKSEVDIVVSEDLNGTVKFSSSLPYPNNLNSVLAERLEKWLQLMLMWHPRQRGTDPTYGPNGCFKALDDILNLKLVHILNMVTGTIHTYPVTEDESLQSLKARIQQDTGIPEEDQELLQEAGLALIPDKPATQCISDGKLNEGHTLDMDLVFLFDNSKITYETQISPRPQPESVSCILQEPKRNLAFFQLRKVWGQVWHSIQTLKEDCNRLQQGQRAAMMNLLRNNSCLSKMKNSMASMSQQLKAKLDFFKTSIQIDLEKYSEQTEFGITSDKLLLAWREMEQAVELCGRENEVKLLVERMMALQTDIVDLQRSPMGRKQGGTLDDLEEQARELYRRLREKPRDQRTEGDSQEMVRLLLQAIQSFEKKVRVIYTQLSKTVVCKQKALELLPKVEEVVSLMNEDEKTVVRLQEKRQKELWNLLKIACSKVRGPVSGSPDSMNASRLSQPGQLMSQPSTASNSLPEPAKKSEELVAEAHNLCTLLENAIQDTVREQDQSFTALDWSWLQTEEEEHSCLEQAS
The assay can be described thus: Inhibition of IKBKB (unknown origin) at 500 nM.

Molecules are shown by their SMILES.

Macrophage colony-stimulating factor 1 receptor (Homo sapiens), sequence (P07333 whole entry): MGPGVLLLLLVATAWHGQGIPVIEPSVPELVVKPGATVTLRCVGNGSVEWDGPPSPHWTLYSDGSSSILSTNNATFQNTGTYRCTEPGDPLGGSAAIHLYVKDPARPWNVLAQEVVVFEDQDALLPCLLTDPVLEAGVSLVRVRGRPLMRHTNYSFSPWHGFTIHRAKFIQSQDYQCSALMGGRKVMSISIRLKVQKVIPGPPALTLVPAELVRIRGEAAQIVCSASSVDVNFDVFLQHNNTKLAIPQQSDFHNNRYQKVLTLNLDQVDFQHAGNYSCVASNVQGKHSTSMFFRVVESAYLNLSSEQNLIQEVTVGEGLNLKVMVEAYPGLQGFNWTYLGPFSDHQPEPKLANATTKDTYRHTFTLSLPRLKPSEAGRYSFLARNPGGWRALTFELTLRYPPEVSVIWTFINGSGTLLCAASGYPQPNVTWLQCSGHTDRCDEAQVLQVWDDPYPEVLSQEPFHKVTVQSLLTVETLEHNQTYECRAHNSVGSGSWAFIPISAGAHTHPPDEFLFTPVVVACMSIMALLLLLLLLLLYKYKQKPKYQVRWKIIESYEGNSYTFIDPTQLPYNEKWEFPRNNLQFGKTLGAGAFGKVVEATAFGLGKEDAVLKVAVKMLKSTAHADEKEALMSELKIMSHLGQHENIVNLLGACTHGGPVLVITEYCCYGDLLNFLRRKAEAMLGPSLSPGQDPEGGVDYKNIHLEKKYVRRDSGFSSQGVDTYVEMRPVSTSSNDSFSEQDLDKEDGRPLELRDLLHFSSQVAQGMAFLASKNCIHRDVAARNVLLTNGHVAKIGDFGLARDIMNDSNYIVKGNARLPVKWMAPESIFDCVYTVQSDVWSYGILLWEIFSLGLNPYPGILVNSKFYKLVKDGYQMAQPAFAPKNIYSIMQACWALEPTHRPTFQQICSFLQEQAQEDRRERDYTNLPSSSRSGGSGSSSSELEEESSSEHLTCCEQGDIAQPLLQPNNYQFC
Platelet-derived growth factor receptor beta (Homo sapiens), sequence (P09619 whole entry): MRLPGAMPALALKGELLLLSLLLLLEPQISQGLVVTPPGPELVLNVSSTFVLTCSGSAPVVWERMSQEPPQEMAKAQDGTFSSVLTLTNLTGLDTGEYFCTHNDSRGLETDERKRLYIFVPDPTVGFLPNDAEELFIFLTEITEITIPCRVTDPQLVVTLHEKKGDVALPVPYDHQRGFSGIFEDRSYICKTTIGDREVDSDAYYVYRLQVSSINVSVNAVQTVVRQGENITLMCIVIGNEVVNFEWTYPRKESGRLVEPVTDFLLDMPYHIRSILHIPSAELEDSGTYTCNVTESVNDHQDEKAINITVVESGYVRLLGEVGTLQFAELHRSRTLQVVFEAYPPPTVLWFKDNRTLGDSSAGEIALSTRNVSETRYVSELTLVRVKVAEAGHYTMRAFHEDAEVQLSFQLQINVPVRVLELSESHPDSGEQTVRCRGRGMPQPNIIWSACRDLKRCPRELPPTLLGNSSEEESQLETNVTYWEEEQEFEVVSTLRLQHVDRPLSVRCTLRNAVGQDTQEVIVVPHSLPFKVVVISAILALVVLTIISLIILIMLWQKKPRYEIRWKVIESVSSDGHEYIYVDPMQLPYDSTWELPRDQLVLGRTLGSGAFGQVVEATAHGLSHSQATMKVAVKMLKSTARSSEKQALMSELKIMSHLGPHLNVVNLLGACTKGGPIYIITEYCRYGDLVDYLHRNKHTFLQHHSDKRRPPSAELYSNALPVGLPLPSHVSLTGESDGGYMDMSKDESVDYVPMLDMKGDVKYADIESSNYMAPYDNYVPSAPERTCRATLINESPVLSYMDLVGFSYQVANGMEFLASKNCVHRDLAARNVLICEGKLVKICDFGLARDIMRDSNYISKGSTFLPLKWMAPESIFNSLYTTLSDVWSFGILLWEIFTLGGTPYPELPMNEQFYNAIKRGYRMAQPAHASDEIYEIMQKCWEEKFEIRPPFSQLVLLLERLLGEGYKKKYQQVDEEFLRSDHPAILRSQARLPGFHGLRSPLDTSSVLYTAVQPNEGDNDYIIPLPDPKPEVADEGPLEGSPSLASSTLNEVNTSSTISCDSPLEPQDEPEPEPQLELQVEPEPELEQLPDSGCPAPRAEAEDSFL

As a reminder, the inhibition is the relative decrease from the control value, in per cent. For the molecule `CN(C)CCNC(=O)c1ccc(-c2cc3c(N[C@H](CO)c4ccccc4)ncnc3s2)cc1`, the inhibition is -3% in [1]; 18% in assay [2]; 8% in assay [3]; -2% in assay [4]; -5% in [5]; 15% in assay [6]. The inhibition in [7] was found to be 27%; in [8], 30%; in assay [9], 1%; in assay [10], 5%; in assay [11] it was 3%; in [12] it was 7%. Besides, the inhibition in [13] was 21%; in assay [14] it was 0%; in assay [15] it was 23%; in assay [16] it was 10%; in assay [17], 23%; in [18], 33%. Moreover, the inhibition in assay [19] is 13%; in assay [20] it was 20%; in [21], 3%.

Regarding `COc1cc(CO)ccc1-c1cc2c(Nc3ccccc3)ncnc2s1`, the inhibition in [1] was 7%; in [2], -7%; in assay [3], 17%; in assay [4], -6%; in [5], -3%; in assay [6] it was 13%. In addition, the inhibition in assay [7] was 20%; in assay [8], 22%; in [9], 5%; in assay [10] it was 9%; in assay [11], 5%; in assay [12], 15%. Besides, the inhibition was 20% in assay [13]; 15% in assay [14]; 38% in assay [15]; 7% in assay [16]; 10% in [17]; 25% in assay [18]. The inhibition in assay [19] stood at 18%; in [20] it was 26%; in assay [21] it was 4%.

For the molecule `COc1cc(C(N)=O)ccc1-c1cc2c(N[C@H](CO)c3ccccc3)ncnc2s1`, the inhibition in assay [1] is -5%; in [2] it was 5%; in assay [3], 42%; in assay [4], 12%; in [5], 8%; in assay [6], 12%. Moreover, the inhibition came to 4% in assay [7]; 62% in assay [8]; 11% in assay [9]; 0% in assay [10]; 17% in [11]; 3% in assay [12]. Besides, the inhibition in [13] was determined as 40%; in assay [14] it was 6%; in assay [15], 17%; in [16] it was 0%; in assay [17] it was 6%; in [18], 40%. In addition, the inhibition worked out at 12% in [19], 5% in [20] and 3% in [21].

In the case of `COc1cc(CO)ccc1-c1cc2c(N[C@H](C)c3ccccc3)ncnc2s1`, the inhibition stood at 15% in [1]; 1% in assay [2]; 2% in assay [3]; 1% in [4]; 3% in assay [5]; 1% in assay [6]. Further, the inhibition in [7] was determined as 7%; in assay [8] it was 30%; in assay [9] it was 1%; in assay [10], 4%; in [11] it was 7%; in assay [12], 6%. In addition, the inhibition was determined as 12% in assay [13]; 2% in assay [14]; 8% in [15]; 1% in [16]; 1% in assay [17]; 40% in [18]. In addition, the inhibition was 7% in [19], 5% in assay [20] and 10% in [21].

Consider `COc1cc(CO)ccc1-c1cc2c(N[C@H](CO)c3ccccc3)ncnc2s1`, for which the inhibition was found to be 3% in assay [1]; 4% in assay [2]; 14% in assay [3]; 7% in assay [4]; 1% in assay [5]; 1% in [6]. Further, the inhibition in assay [7] was 22%; in assay [8], 63%; in assay [9], 1%; in [10] it was 1%; in [11], 8%; in assay [12], 1%. The inhibition in assay [13] came to 37%; in assay [14] it was 3%; in assay [15] it was 10%; in assay [16], 1%; in assay [17], 10%; in [18], 58%. Besides, the inhibition in assay [19] came to 5%; in assay [20] it was 9%; in [21], 1%.
